Here are results for 1 compound from patent US12377175B2, “Trifunctional constructs with tunable pharmacokinetics useful in imaging and anti-tumor therapies” (Cornell University, priority 2016, dated 2025).

In the series the test system is LNCaP xenograft tumor-bearing mice. The experiment in a line: Biodistribution of 225Ac-macropa-RPS-070 in LNCaP xenograft mice. As to conditions: 4-96 h; no accumulation of 225Ac in liver, spleen, bone. The class given is in vivo, mouse. Here is the method:
Cell Culture. […] Cell culture supplies were from Invitrogen unless otherwise noted.
Inoculation of Mice with Xenografts. All animal studies were approved by the Institutional Animal Care and Use Committee of Weill Cornell Medicine and were undertaken in accordance with the guidelines set forth by the USPHS Policy on Humane Care and Use of Laboratory Animals. Animals were housed under standard conditions in approved facilities with 12 h light/dark cycles. Food and water was provided ad libitum throughout the course of the studies. Hairless male nu/nu mice were purchased from the Jackson Laboratory. For inoculation in mice, LNCaP cells were suspended at 4×10^7 cells/mL in a 1:1 mixture of PBS:Matrigel (BD Biosciences). Each mouse was injected in the left flank with 0.25 mL of the cell suspension. Biodistributions were conducted when tumors were in the range 100-400 mm^3.
Biodistribution of […] in LNCaP xenograft mice. Fifteen LNCaP xenograft tumor-bearing mice (5 per time point) were injected intravenously with a bolus injection of 85-95 kBq and 100 ng ([…]) of each ligand. The mice were sacrificed by cervical dislocation at 4, 24 and 96 h post injection. A blood sample was removed, and a full biodistribution study was conducted on the following organs (with contents): heart, lungs, liver, small intestine, large intestine, stomach, spleen, pancreas, kidneys, muscle, bone, and tumor. Tissues were weighed and counted on a 2470 Wizard Automatic Gamma Counter (Perkin Elmer). 1% ID/mL samples were counted prior to and following each set of tissue samples to enable decay correction to be undertaken. Counts were corrected for decay and for activity injected, and tissue uptake was expressed as percent injected dose per gram (% ID/g). Standard error measurement was calculated for each data point.

On to `O=C(O)CC[C@H](NC(=O)N[C@@H](CCCCNC(=O)Nc1cccc(-c2cn(CCOCCOCCOCCOCCOCCOCCC(=O)N[C@@H](CCCCNC(=S)Nc3cc(CN4CCOCCOCCN(Cc5cccc(C(=O)O)n5)CCOCCOCC4)nc(C(=O)O)c3)C(=O)N[C@@H](CCCCNC(=O)Cc3ccc(I)cc3)C(=O)O)nn2)c1)C(=O)O)C(=O)O` [macropa-RPS-070, (((S)-1-Carboxy-5-(3-(3-(1-((23S,26S)-26-carboxy-23-(4-(3-(2-carboxy-6-((16-((6-carboxypyridin-2-yl)methyl)-1,4,10,13-tetraoxa-7,16-diazacyclooctadecan-7-yl)methyl)pyridin-4-yl)thioureido)butyl)-33-(4-iodophenyl)-21,24,32-trioxo-3,6,9,12,15,18-hexaoxa-22,25,31-triazatritriacontyl)-1H-1,2,3-triazol-4-yl)phenyl)ureido)pentyl)carbamoyl)-L-glutamic acid], for which the “retention of 225Ac by the construct in vivo” value is recorded as “stably retain”.
